Results: publication PMC12467382, “Synthesis and Bioevaluation of Chalcones as Broad-Spectrum Antiviral Compounds Against Single-Stranded RNA Viruses” (Biomolecules, 2025)

Key:
CHO-K1 cells = experiment: cells; format: cell-based, Chinese hamster; settings: for CHOK1 48 h EC10: Chinese hamster; for EC50: Cricetulus griseus, CHO-K1, 48 h, read-out: CHOK1 48 h EC50
Description: (§1) A cell growth assay using the MTS reagent was conducted to assess the general toxicity of each chalcone compound. Briefly, cell growth was assayed in sterile 96-well microtiter plates (Costar 3599, Corning Inc., Corning, NY, USA) in the presence of each chalcone. Experiments were conducted in triplicate. In a typical experiment, there are two plates. The first is the control plate, which allows one to assess the starting cell population on the day of drug addition (Day 0). The second plate is the test plate where cells are plated and tested with different drug concentrations on Day 0. For example, either CHO cells or Hs27 cells were plated in a 200 µL volume at 1000 cells/well on both the control and test plates and incubated overnight to allow the cells to adhere. On Day 0, 1 μL of PBS was added to the control plate wells so that their total volume was 201 μL. MTS reagent (Promega Cell Titer 96 Aqueous non-radioactive cell proliferation reagent, Promega, Madison, WI, USA) was added (20 μL) to each well on the control plate, and that plate was incubated for 4 h in a 5% CO2 atmosphere at 37 °C and then read on the plate reader.
(§2) On Day 0, 1 μL of a 200× stock solution of each chalcone was added to the respected well on the test plate, and each condition was tested in triplicate. Drug solutions were prepared in advance in 100% DMSO and dosed so that the final DMSO concentration was 0.5%. For example, 1 μL of chalcone solution was added to the cells plated in each well in 200 μL of media. Of note, the respective chalcone addition occurred after an initial overnight incubation of each cell line in each well to reach Day 0 (the drugging day). After the chalcone was added, the cells were incubated in 5% CO2 for 48 h at 37 °C. After 48 h, the MTS reagent (Promega, Madison, WI, USA) was added (20 μL), and the test plates were incubated for an additional 4 h, and then, absorbance at 490 nm was measured on a BioTek Synergy MX plate reader. […] IC50 values were determined from the corresponding plot of relative absorbance at 490 nm vs. the drug concentration.
(§3) For highly colored materials like the chalcones, it is important to consider the contribution of the compound’s own absorbance to the MTS assay. To correct for the absorbance contribution of the chalcone itself, we measured each chalcone’s absorbance (Chalcone Abs) at 490 nm at the respective concentration (e.g., 10 µM) and subtracted the absorbance of the media background (blank Abs). This net value was then subtracted out of the Day 2 absorbance value to provide the % relative growth via the following equation:(1) % Relative Growth = (Day 2 Abs−Day 2 blank Abs)−Chalcone Abs−blank Abs−(Day 0 Abs−Day 0 blank Abs)/(Day 2 Control Abs −Day 2 blank Abs)−(Day 0 Abs−Day 0 blank Abs) ×100%
With the chalcones in hand, we then evaluated their growth-inhibition properties in Chinese hamster ovary (CHO-K1) cells and human Hs27 fibroblast cells. […] The results are shown in Table 2 along with a SAR summary of our findings in the host Hs27 cells.

Hs27 cells = experiment: 48 h MTS growth inhibition assay in Hs27 cells; format: cell-based, human; settings: for EC50: Homo sapiens, HS27, 48 h, read-out: Hs27 48 h EC50; for Hs27 48 h EC10: highest concentration giving 90% relative new cell growth after 48 h, 0.5% DMSO
Description: as §1, with “Briefly, cell growth was assayed in sterile 96-well microtiter plates (Costar 3599, Corning Inc., Corning, NY, USA) in the presence of each chalcone.” left out
as §2, §3
With the chalcones in hand, we then evaluated their growth-inhibition properties in Chinese hamster ovary (CHO-K1) cells and human Hs27 fibroblast cells.

LACV = LACV Gc protein expression in Hs27 cells by flow cytometry; format: cell-based, La Crosse Virus; settings: MOI 10, 24 hpi; for Cells expressing LACV glycoprotein Gc: 10 µM before and after infection, DMSO ~60%
Description: La Crosse Virus (LACV) was kindly provided by Andrew Pekosz (Johns Hopkins Bloomberg School of Public Health, Baltimore, MD, USA), grown at 28 °C in C6/36 cells derived from the larvae of the Asian tiger mosquito (ATCC), and titered at 37 °C on Vero cells as previously described. Infections were carried out in DMEM containing 2% HI FBS for 1 h or mock infected with media alone. Cells were washed with PBS and cultured in DMEM containing 2% HI FBS.
For cytotoxicity assays, cells were stained with propidium iodide (PI) at a dilution of 1:100. Cell viability was determined via flow cytometry using the CytoFLEX (Beckman Coulter, Brea, CA, USA). CytExpert software (Beckman Coulter, version 2.4) was used to analyze independent events. PIV5 infection was monitored using flow cytometry via the FITC channel by analyzing GFP expression of individual cells. ZIKV infection was monitored utilizing Flavivirus group antigen–antibody (D1-4G2-4-15; Novus Biologicals, Littleton, CO, USA) staining for the ZIKV envelope protein. Cells were fixed and permeabilized using eBioscience Intracellular Fixation and Permeabilization Buffer (Invitrogen, Thermo Fisher Scientific, MA, USA) according to the manufacturer’s instructions. Secondary staining was performed using an anti-Alexa Fluor 488 (AF488) antibody (Invitrogen, Thermo Fisher Scientific, MA, USA). OC43 infection was monitored utilizing a primary antibody targeted toward the OC43 nucleocapsid protein (NP, MAB9013, Sigma-Aldrich, St. Louis, MO, USA). Secondary staining was performed using an AF488 antibody. Cells were fixed and permeabilized as previously described. LACV infection was monitored utilizing an anti-LACV Gc 807.31ab antibody kindly provided by Andrew Pekosv. Secondary staining was performed using an AF488 antibody. Cells were fixed and permeabilized as previously described.
To expand these findings, we evaluated whether these top-performing chalcones inhibited the replication of other RNA viruses. […]

SMILES	CHOK1 48 h EC10 (CHO-K1 cells) [µM]	EC50 (CHO-K1 cells) [µM]	EC50 (Hs27 cells) [µM]	Hs27 48 h EC10 (Hs27 cells) [µM]	Inhibition of viral gene expression, LACV (LACV; 10 µM)	Cells expressing LACV glycoprotein Gc (LACV)
COc1ccccc1/C=C/C(=O)c1ccccc1O [Chalcone 8a]	9.3 ± 0.6	25.5 ± 2.7	20.3 ± 2.1	0.6 ± 0.04	did not inhibit viral gene expression	–
COc1ccc(Br)cc1/C=C/C(=O)c1c(O)cccc1OC [Chalcone 8f]	2.5 ± 0.1	6.1 ± 0.8	2.3 ± 0.2	1.4 ± 0.1	–	–
COc1ccc(Br)cc1/C=C/C(=O)c1c(O)cccc1OCc1ccccc1 [Chalcone 8l]	5.2 ± 0.3	8.1 ± 1	7.8 ± 0.6	6.1 ± 0.5	–	–
CCOc1ccc(Br)cc1/C=C/C(=O)c1c(O)cccc1OCc1ccccc1 [Chalcone 8o]	7.0 ± 0.4	9.9 ± 0.7	13.3 ± 1.1	8.3 ± 0.5	–	below 10%
CCOc1ccc(Cl)cc1/C=C/C(=O)c1c(O)cccc1OCc1ccccc1 [Chalcone 8p]	8.2 ± 0.3	25.8 ± 1.1	19.3 ± 1.9	8.7 ± 0.7	–	below 10%
COc1ccc(Br)cc1/C=C/C(=O)c1c(O)cccc1OCCC(C)C [Chalcone 8s, (2E)-3-(5-Bromo-2-Methoxy-Phenyl)-1-[2-Hydroxy-6-(3-Methyl-Butoxy)-Phenyl]-Propenone]	5.4 ± 0.3	8.6 ± 0.3	13.9 ± 0.5	6.9 ± 0.6	–	–
CCOc1ccc(Br)cc1/C=C/C(=O)c1c(O)cccc1OCc1ccc(-c2ccccc2)cc1 [Chalcone 8v, (2E)-1-[2-(Biphenyl-4-Ylmethoxy)-6-Hydroxy-Phenyl]3-(5-Bromo-2-Ethoxy-Phenyl)-Propenone]	3.7 ± 0.3	> 50	18.4 ± 0.9	3.4 ± 0.2	–	–
COc1ccc(Br)cc1/C=C/C(=O)c1c(O)cccc1OCc1ccc(-c2ccccc2)cc1 [Chalcone 8w, (2E)-1-[2-(Biphenyl-4-Ylmethoxy)-6-Hydroxy-Phenyl]3-(5-Bromo-2-Methoxy-Phenyl)-Propenone]	6.8 ± 0.3	10.1 ± 1	8.2 ± 0.5	6.5 ± 0.5	–	–
COc1ccc(O)cc1/C=C/C(=O)c1c(O)cccc1OCc1ccccc1 [Chalcone 8x, (2E)-1-(2-Benzloxy-6-Hydroxy-Phenyl)-5-(5-Hydroxy-2-Methoxy-Phenyl)-Propenone]	3.8 ± 0.4	6.3 ± 0.3	3.4 ± 0.3	1.1 ± 0.07	–	–
COc1cc(/C=C/C(=O)c2c(O)cccc2OCc2ccccc2)cc(OC)c1OC [Chalcone 8z, (2E)-1-(2-Benzloxy-6-Hydroxy-Phenyl)-3-(3,4,5-Trimethoxy-Phenyl)-Propenone]	3.8 ± 0.4	5.8 ± 0.4	5 ± 0.2	4.0 ± 0.2	–	–
